Measurements reported in patent publication US5599825A, “Water-soluble methine compound and pharmaceutical composition for treatment of cancer comprising the same” (Fuji Photo Film Co., Ltd., priority 1994, dated 1997).

Assays:
[1] = Solubility test 1: 5 mg in 5 ml ion-exchanged water, macroscopic (1 mg/ml); assay type: physicochemical; details: room temperature; for Solubility 1 mg/mL: 5 minutes shaking; for dissolution in the above-described solubility tests: summary in words
Method: (§1) The solubility tests were conducted by the following methods of tests 1 and 2:
5 mg of a methine compound is fed into a test tube, to which 5 ml of ion-exchanged water is added, the resultant mixture is shaken at room temperature for 5 minutes, and the solubility thereof is macroscopically confirmed (1 mg/ml solution).

[2] = Solubility test 2: 5 mg in 0.5 ml ion-exchanged water, macroscopic (10 mg/ml); assay type: physicochemical; details: room temperature, 5 minutes shaking
Method: as §1
5 mg of a methine compound is fed into a test tube, to which 0.5 ml of ion-exchanged water is added, the resultant mixture is shaken at room temperature for 5 minutes, and the solubility thereof is macroscopically confirmed (10 mg/ml solution).

[3] = Solubility in 5% glucose solution for injection, macroscopic (10 mg/ml); assay type: physicochemical; details: room temperature, 5 minutes shaking
Method: The solubility of each of the compounds of the present invention synthesized in Example 1 in 5% glucose solution for injection was examined.
5 mg of a methine compound was fed into a test tube, to which 0.5 ml of 5% glucose solution for injection was added, the resultant mixture was shaken at room temperature for 5 minutes, and the solubility thereof was macroscopically confirmed (10 mg/ml solution).

[4] = test system: human colonic epithelial carcinoma LS174T; experiment: Activity against human colonic epithelial carcinoma LS174T in nude mouse (tumor inhibition); assay type: in vivo, human (transplanted in BALB/C nu/nu mice); details: i.v.
Method: Activity of the present pharmaceutical compositions against human colonic epithelial carcinoma LS174T was determined by use of nude mouse as follows:
As the human colonic epithelial carcinoma cell lines LS174T, there was used the established line by trypsinizing piece of LS174T obtained from the operating theatre of the original adenocarcinoma of colon in such that the piece becomes suitable for cultivation. When this cultured cells LS174T are hypodermically injected to a nude mouse, the cells can be easily grown in the body of the nude mouse as a moderately to sufficiently differentiated human colonic epithelial carcinoma. The cells LS174T produce CEA in high level and can proliferate in hamster cheek pouches or immunodeprived mice, so that it has been proven that the cells LS174T have neoplastic properties.
BALB/C nu/nu mice (male, five weeks age) available from Charles River Japan Inc. were placed in an atmosphere having no pathogen. Tumors formed by the hypodermic injection of human colonic epithelial carcinoma cell lines LS174T into the mice were cut off under the aseptic condition, and the surrounding skin and connective tissue of the tumor tissues as well as the necrotic tissue located in the center of the tumor tissues were removed. The tumor tissues were Cut in the form of 3-5 mm square, and the resulting one tissue was charged into a needle for transplantation to hypodermically transplant it into the mouse. The resulting mice were randomly divided into control group (six mice) and treating group (six mice). The intravenous administration of the pharmaceutical composition into the treating group started next day. The amount and schedule of the administration were determined based on the experience, mainly the knowledge from the pretoxic-test data of LD 50 and LD 10.5% glucose solution or physiologic saline for injection was injected to the control group in the same amount as that to be intravenously injected to the treating group.
The pharmaceutical composition was dissolved in 5% glucose solution or physiologic saline for injection in such that the amount of the pharmaceutical composition contained in the glucose solution or physiologic saline is 5 ml per one kg of weight of the mouse to be injected so as to prepare an injection liquid. When the proliferation of tumor in the control group reached exponential growth phase and the size of the tumor became detectable by touch with hand, i.e., generally three weeks after the transplantation, the experiment was stopped. Then the tumor of each mouse was cut off and the weight of the resulting tumor was measured by use of chemical balance. Regarding each group, tumor inhibition percentage between the treating group and control group was calculated.

[5] = test system: LOX, a human melanoma cell line; experiment: Nude mice bearing human melanoma LOX (survival); assay type: in vivo, human (in male athymic Swiss nu/nu mouse); details: i.p.
Method: Nude Mice Bearing Human Melanoma as a Model System
LOX, a human melanoma cell line, grown subcutaneously in nude mice was excised, trypsinized to yield a single cell suspension using a metal grid with a […]. Red blood cells were lysed by incubation with 0.17 molar ammonium chloride at 4° C. for 20 minutes. Five million viable trypan blue negative cells made up in 0.1 ml of Dulbecco modified Eagles' medium (DME) were injected into the peritoneal cavity of a male athymic Swiss nu/nu mouse. The control group and each treatment group consisted of 5 to 10 mice. Treatment was commenced the following day by intraperitoneal injection.
Ten control mice received 0.25 ml of 2% dextrose on those days the treated groups were injected with the compounds of this invention. The compounds of the General Formulas (I) to (II) used in this invention which were tested are listed in Table 6 below and the results obtained are shown in Table 6 of the accompanying drawings. T/C is the ratio, expressed as a percentage of the mean survival age of the treated group to the mean survival age of the untreated control group.

Compound | Solubility 1 mg/mL [1] | Solubility 10 mg/mL [2] | Solubility 10 mg/mL [3] | also measured
CCn1c(=Cc2sc3c4ccccc4ccc3[n+]2CCOCCOCCOC)sc(=C2Sc3ccccc3N2C)c1=O [Compound 1-11, 3-methoxyethoxyethoxyethyl-2-{[3-ethyl-5-(3-methylbenzothiazolin-2-ylidene)]-4-oxothiazolidin-2-ylidenemethyl}naphtho[2,1-d]thiazolium=chloride] | soluble | soluble | soluble | Tumor Inhibition Ratio ([4]; 8 mg/kg day 1, 10 mg/kg days 3, 6, 8, 10, 15, 17): 67.9%; T/C (mean survival age of treated group to untreated control group) ([5]; 5 mg/kg days 1, 15, 10 mg/kg days 2, 5, 7, 13, 15 mg/kg day 9): 129%
CCn1c(=Cc2sc3ccccc3[n+]2CCOCCOCCOC)sc(=C2Sc3ccccc3N2C)c1=O [Compound 1-12] | soluble | soluble | soluble | T/C (mean survival age of treated group to untreated control group) ([5]; 5 mg/kg day 1, 10 mg/kg days 2, 5, 7, 9, 13, 15): 124%
CCn1c(=Cc2sc3ccccc3[n+]2CCOCCOCCOC)sc(=C2Sc3ccc4ccccc4c3N2C)c1=O [Compound 1-3] | soluble | soluble | soluble | Tumor Inhibition Ratio ([4]; 5 mg/kg day 1, 10 mg/kg days 3, 7, 13 mg/kg days 9, 13, 15, 17): 51.1%; T/C (mean survival age of treated group to untreated control group) ([5]; 7.5 mg/kg days 1, 2, 5, 7, 9, 13, 15, 20): 153%
CCn1c(=Cc2sc3ccccc3[n+]2CCOCCOCCOC)sc(=C2Sc3ccc(OC)cc3N2C)c1=O [Compound 1-13] | soluble | soluble | soluble | Tumor Inhibition Ratio ([4]; 20 mg/kg days 1, 3, 7, 11, 16, 18, 25 mg/kg day 9): 45.2%; T/C (mean survival age of treated group to untreated control group) ([5]; 5 mg/kg day 1, 7.5 mg/kg days 2, 5, 10 mg/kg days 7, 9, 13, 15): 124%
CCn1c(=Cc2sc3ccccc3[n+]2CCC2OCCCO2)sc(=C2Sc3ccc4ccccc4c3N2C)c1=O [Compound 1-9, 3-(1,3-dioxane-2-ethyl)-2-{[3-ethyl-5-(3-methylnaphtho[1,2-d]thiazolin-2-ylidene)]-4-oxothiazolidin-2-ylidenemethyl}benzothiazolium=chloride] | soluble | suspension | – | Tumor Inhibition Ratio ([4]; 3 mg/kg days 1, 4, 7, 1 mg/kg days 9, 11, 13, 18): 65.6%; T/C (mean survival age of treated group to untreated control group) ([5]; 5 mg/kg days 1, 13, 15, 10 mg/kg days 2, 5, 7, 15 mg/kg day 9): 153%
CCn1c(=Cc2sc3ccccc3[n+]2CCOCCOCCOCCOC)sc(=C2Sc3ccc4ccccc4c3N2C)c1=O [Compound 1-4] | soluble | soluble | soluble | Tumor Inhibition Ratio ([4]; 5 mg/kg days 1, 3, 7.5 mg/kg day 6, 10 mg/kg days 8, 10, 12.5 mg/kg days 13, 15, 17): 71.5%
CCn1c(=Cc2sc3c4ccccc4ccc3[n+]2CCOCCOCCOC)sc(=C2SCCN2C)c1=O [Compound 1-14] | soluble | soluble | soluble | –
CC[n+]1c(C=c2sc(=C3Sc4c(ccc5ccccc45)N3C)c(=O)n2CCOCCOCCOC)sc2ccccc21 [Compound 1-7, 3-ethyl-2-{[3-methoxyethoxyethoxyethyl-5-(3-methylnaphtho[2,1-d]thiazolin-2-ylidene)]-4-oxothiazolidin-2-ylidenemethyl}benzothiazolium=chloride] | soluble | soluble | soluble | Tumor Inhibition Ratio ([4]; 5 mg/kg days 1, 17, 7.5 mg/kg day 3, 10 mg/kg days 6, 8, 10, 13): 83.0%; T/C (mean survival age of treated group to untreated control group) ([5]; 5 mg/kg days 1, 9, 15, 10 mg/kg days 2, 5, 7, 13): 129%

Now from value to compound, other results behind:

Solubility 1 mg/mL [1] | Solubility 10 mg/mL [2] | Solubility 10 mg/mL [3] | Compound | also measured
soluble | suspension | soluble | CCn1c(=Cc2sc3ccccc3[n+]2CCOCCOCCOC)sc(=C2Sc3c(ccc4ccccc34)N2C)c1=O [Compound 1-8] | –
soluble | soluble | soluble | CCN1C(=O)C(=C2Sc3ccc4ccccc4c3N2C)SC1=Nc1scc[n+]1CCOCCOCCOC [Compound 1-15] | Tumor Inhibition Ratio ([4]; 10 mg/kg days 1, 3, 6, 8, 10, 13, 15, 20): 60.0%
suspension | suspension | suspension | CCn1c(=Cc2sc3ccccc3[n+]2CCOCCO)sc(=C2Sc3ccc4ccccc4c3N2C)c1=O [Compound S-3, reference compound] | dissolution in the above-described solubility tests [1]: not dissolved
soluble | soluble | – | CCn1c(=Cc2sc3ccccc3[n+]2CC)sc(=C2Sc3c(ccc4ccccc34)N2CCOCCOCCOC)c1=O [Compound 1-6, 3-ethyl-2-{[3-ethyl-5-(3-methoxyethoxyethoxyethylnaphtho[2,1-d]thiazolin-2-ylidene)]-4-oxothiazolidin-2-ylidenemethyl}benzothiazolium=chloride] | –
soluble | suspension | – | CCn1c(=Cc2sc3c4ccccc4ccc3[n+]2CCOCCOCCOC)sc(=C2Sc3ccc4ccccc4c3N2C)c1=O [Compound 1-5] | –
soluble | suspension | soluble | CCn1c(=Cc2sc3c4ccccc4ccc3[n+]2CCOCCOCCOC)sc(=CC=C2Sc3ccc4ccccc4c3N2C)c1=O [Compound 1-16] | –
soluble | soluble | soluble | CCn1c(=Cc2sc3ccccc3[n+]2CCOCCOCCOC)sc(=C2Oc3ccc4ccccc4c3N2C)c1=O [Compound 1-10] | –
suspension | suspension | suspension | CCn1c(=Cc2sc3ccccc3[n+]2CC)sc(=C2Sc3ccc4ccccc4c3N2C)c1=O [Compound S-1, reference compound] | dissolution in the above-described solubility tests [1]: not dissolved
suspension | suspension | suspension | CCn1c(=Cc2sc3ccccc3[n+]2CCOC)sc(=C2Sc3ccc4ccccc4c3N2C)c1=O [Compound S-2, reference compound] | dissolution in the above-described solubility tests [1]: not dissolved
